From ChEMBL document CHEMBL1926636, “Isoxazoles incorporated N-substituted decahydroquinolines: a precursor to the next generation antimicrobial drug” (2012)
Values after ≈ are worked out from the molar mass of the structure shown.

Experiments:
Escherichia coli [1] = experiment: Antibacterial activity against Escherichia coli ATCC 35218 by twofold serial dilution technique; format: functional
Staphylococcus aureus [2] = experiment: Antibacterial activity against Staphylococcus aureus ATCC 6538 at 10 ug/mL after 24 hrs by disc diffusion method; format: functional; settings: ATCC 6538, 24 h, read-out: IZ
Escherichia coli [3] = experiment: Antibacterial activity against Escherichia coli ATCC 35218 at 10 ug/mL after 24 hrs by disc diffusion method; format: functional; settings: ATCC 35218, 24 h, read-out: IZ
Pseudomonas aeruginosa [4] = experiment: Antibacterial activity against Pseudomonas aeruginosa ATCC 9027 at 10 ug/mL after 24 hrs by disc diffusion method; format: functional; settings: ATCC 9027, 24 h, read-out: IZ
[5] = test system: Lysinibacillus sphaericus; experiment: Antibacterial activity against Bacillus sphaericus ATCC 7031 by twofold serial dilution technique; format: functional
Candida albicans [6] = experiment: Antifungal activity against Candida albicans ATCC 90028 by twofold serial dilution technique; format: functional
Aspergillus fumigatus [7] = experiment: Antifungal activity against Aspergillus fumigatus ATCC 28212 by twofold serial dilution technique; format: functional
Aspergillus niger [8] = experiment: Antifungal activity against Aspergillus niger ATCC 16404 at 10 ug/mL after 72 hrs by agar cup plate method; format: functional; settings: ATCC 16404, 72 h, read-out: IZ
Staphylococcus aureus [9] = experiment: Antibacterial activity against Staphylococcus aureus ATCC 6538 by twofold serial dilution technique; format: functional
Bacillus subtilis [10] = experiment: Antibacterial activity against Bacillus subtilis ATCC 6631 by twofold serial dilution technique; format: functional
[11] = test system: Lysinibacillus sphaericus; experiment: Antibacterial activity against Bacillus sphaericus ATCC 7031 at 10 ug/mL after 24 hrs by disc diffusion method; format: functional; settings: ATCC 7031, 24 h, read-out: IZ
Bacillus subtilis [12] = experiment: Antibacterial activity against Bacillus subtilis ATCC 6631 at 10 ug/mL after 24 hrs by disc diffusion method; format: functional; settings: ATCC 6631, 24 h, read-out: IZ
Candida albicans [13] = experiment: Antifungal activity against Candida albicans ATCC 90028 at 10 ug/mL after 72 hrs by agar cup plate method; format: functional; settings: ATCC 90028, 72 h, read-out: IZ
Aspergillus niger [14] = experiment: Antifungal activity against Aspergillus niger ATCC 16404 by twofold serial dilution technique; format: functional
Candida albicans [15] = experiment: Antifungal activity against Candida albicans PYCC 3436 at 10 ug/mL after 72 hrs by agar cup plate method; format: functional; settings: PYCC 3436, 72 h, read-out: IZ
Salmonella typhi [16] = experiment: Antibacterial activity against Salmonella typhi ATCC 6539 by twofold serial dilution technique; format: functional, Salmonella enterica subsp. enterica serovar Typhi; settings: Salmonella enterica
Aspergillus fumigatus [17] = experiment: Antifungal activity against Aspergillus fumigatus ATCC 28212 at 10 ug/mL after 72 hrs by agar cup plate method; format: functional; settings: ATCC 28212, 72 h, read-out: IZ
Candida albicans [18] = experiment: Antifungal activity against Candida albicans PYCC 3436 by twofold serial dilution technique; format: functional
Salmonella typhi [19] = experiment: Antibacterial activity against Salmonella typhi ATCC 6539 at 10 ug/mL after 24 hrs by disc diffusion method; format: functional, Salmonella enterica subsp. enterica serovar Typhi; settings: Salmonella enterica, ATCC 6539, 24 h; read-out: IZ
Pseudomonas aeruginosa [20] = experiment: Antibacterial activity against Pseudomonas aeruginosa ATCC 9027 by twofold serial dilution technique; format: functional

## Clc1ccccc1C1ONC2=C1C(c1ccccc1)N(Cc1ccccc1)C1CCCCC21 (stereo not given)
Escherichia coli [1]
  MIC99: 25 µg/mL (≈ 54.7 µM)
Staphylococcus aureus [2]
  zone of inhibition at 10 µg/mL: 12 mm
Escherichia coli [3]
  zone of inhibition at 10 µg/mL: 7 mm
Pseudomonas aeruginosa [4]
  zone of inhibition at 10 µg/mL: 6 mm
[5]
  MIC99: 50 µg/mL (≈ 109 µM)
Candida albicans [6]
  MIC99: 25 µg/mL (≈ 54.7 µM)
Aspergillus fumigatus [7]
  MIC99: 25 µg/mL (≈ 54.7 µM)
Aspergillus niger [8]
  zone of inhibition at 10 µg/mL: 14 mm
Staphylococcus aureus [9]
  MIC99: 50 µg/mL (≈ 109 µM)
Bacillus subtilis [10]
  MIC99: 50 µg/mL (≈ 109 µM)
[11]
  zone of inhibition at 10 µg/mL: 13 mm
Bacillus subtilis [12]
  zone of inhibition at 10 µg/mL: 5 mm
Candida albicans [13]
  zone of inhibition at 10 µg/mL: 22 mm
Aspergillus niger [14]
  MIC99: 100 µg/mL (≈ 219 µM)
Candida albicans [15]
  zone of inhibition at 10 µg/mL: 16 mm
Salmonella typhi [16]
  MIC99: > 100 µg/mL
Aspergillus fumigatus [17]
  zone of inhibition at 10 µg/mL: 5 mm
Candida albicans [18]
  MIC99: 25 µg/mL (≈ 54.7 µM)
Salmonella typhi [19]
  zone of inhibition at 10 µg/mL: 9 mm
Pseudomonas aeruginosa [20]
  MIC99: 25 µg/mL (≈ 54.7 µM)
